In US11931431B2, “PSMA-targeted radiopharmaceutical for diagnosing and treating prostate cancer” (FUTURECHEM CO., LTD, priority 2018, dated 2024):
Each block holds one compound with its values, some of them ahead of it.

What was measured:
[1] = target: PSMA (Homo sapiens, UniProt Q04609); settings: cited from earlier work
[2] = system: PSMA^+ PC-3 PIP tumors; assay: Biodistribution test with mice transplanted with prostate cancer cell lines (gamma counter); format: in vivo, nude mouse; settings: 5 hours after injection
Method: After 270 minutes of [^68Ga]1e and [^68Ga]1g injection, microPET/CT images were obtained for 30 minutes, and then each organ (blood, muscle, fat, heart, lung, liver, spleen, stomach, intestine, kidney, bone and tumor) was extracted and the radioactivity thereof was measured using a gamma counter.

[3] = system: PSMA^+ PC-3 PIP tumors; assay: MicroPET/CT imaging of mice transplanted with prostate cancer cell lines; format: in vivo, nude mouse
Method: A tumor model was prepared by subcutaneously injecting PSMA^+ PC-3 PIP cells (a human prostate cancer cell line) to the right side of the nude mouse hind leg. Each of the ^68Ga-labeled compounds [^68Ga]1e, [^68Ga]1g, [^68Ga]1h and [^68Ga]1k was intravenously injected with 5.5 to 6.5 MBq (148-175 μCi/200 μL), and PET/CT images were obtained using small animal INVEON PET/CT (Siemens medical solutions, Knoxville, USA) for 60 minutes. After 150 minutes, 270 minutes, and 390 minutes, PET/CT images were also obtained for 30 minutes. The obtained PET/CT image results were quantitatively analyzed using Inveon™ Research Workplace (IRW).
FIGS. 1, 2, 3, and 4 are graphs showing the quantitative analysis results of MicorPET/CT images for [^68Ga]1e, [^68Ga]1g, [^68Ga]1h, and [^68Ga]1k in % injected dose (ID)/g, and summarized in Tables 3, 4, 5, and 6, respectively.

[4] = Measurement of lipophilicity (log P), n-octanol/PBS; format: physicochemical; settings: mean of 3
Method: Each of the [^68Ga]1 compounds (1˜2 mci) synthesized in Example 14 was transferred into a vial, and the solvent was removed, to which 1 mL of n-octanol and 1 mL of PBS were added, and the lid was well closed, followed by mixing with a vortex for 1 minute. After the layers were separated, 0.1 mL was taken from each layer and the radiation dose was measured. The radiation dose was measured by repeating 3 times, and the mean value was obtained.

Chain of PSMA (Q04609 whole entry): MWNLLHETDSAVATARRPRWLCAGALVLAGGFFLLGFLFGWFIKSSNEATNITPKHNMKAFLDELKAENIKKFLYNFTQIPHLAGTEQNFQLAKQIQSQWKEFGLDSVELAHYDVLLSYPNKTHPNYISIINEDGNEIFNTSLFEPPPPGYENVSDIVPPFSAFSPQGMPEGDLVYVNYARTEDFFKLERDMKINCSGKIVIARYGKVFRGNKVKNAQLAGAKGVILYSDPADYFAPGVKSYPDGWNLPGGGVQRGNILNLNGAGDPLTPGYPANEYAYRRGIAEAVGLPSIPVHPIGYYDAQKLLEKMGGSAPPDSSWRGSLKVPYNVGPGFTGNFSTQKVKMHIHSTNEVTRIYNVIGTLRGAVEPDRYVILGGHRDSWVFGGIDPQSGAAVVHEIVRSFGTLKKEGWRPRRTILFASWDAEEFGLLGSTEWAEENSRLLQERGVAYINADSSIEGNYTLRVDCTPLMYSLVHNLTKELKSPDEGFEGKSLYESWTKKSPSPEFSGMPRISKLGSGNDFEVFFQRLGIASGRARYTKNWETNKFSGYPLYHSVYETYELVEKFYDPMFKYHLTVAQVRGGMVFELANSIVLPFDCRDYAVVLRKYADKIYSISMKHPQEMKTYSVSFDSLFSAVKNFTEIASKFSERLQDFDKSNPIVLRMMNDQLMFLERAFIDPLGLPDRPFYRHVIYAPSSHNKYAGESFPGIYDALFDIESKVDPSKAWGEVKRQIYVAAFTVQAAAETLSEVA

SMILES: O=C(O)CC[C@H](NC(=O)N[C@@H](CCCCNC(=O)Nc1ccc([125I])cc1)C(=O)O)C(=O)O [[^125I]30]
- Kd [1]: 130 pM

- tumor intake rate, times higher than that of [^68Ga]1e [2]: about 1.4 times
- Radioactivity in mouse organ: Blood ([2]; gamma counter): 0.02 ± 0.03 % ID/g
- Radioactivity in mouse organ: Bone ([2]; gamma counter): 0.01 ± 0.01 % ID/g
- Radioactivity in mouse organ: Fat ([2]; gamma counter): 0.11 ± 0.15 % ID/g
- Radioactivity in mouse organ: Heart ([2]; gamma counter): 0.02 ± 0.01 % ID/g
- Radioactivity in mouse organ: Intestine ([2]; gamma counter): 0.09 ± 0.08 % ID/g
- Radioactivity in mouse organ: Kidney ([2]; gamma counter): 9.15 ± 11.26 % ID/g
- Radioactivity in mouse organ: Liver ([2]; gamma counter): 0.03 ± 0.01 % ID/g
- Radioactivity in mouse organ: Lung ([2]; gamma counter): 0.07 ± 0.07 % ID/g
- Radioactivity in mouse organ: Muscle ([2]; gamma counter): 0.01 ± 0.00 % ID/g
- Radioactivity in mouse organ: Spleen ([2]; gamma counter): 0.20 ± 0.27 % ID/g
- Radioactivity in mouse organ: Stomach ([2]; gamma counter): 0.02 ± 0.02 % ID/g
- intake of mouse organ: Bladder ([3]; 10 min after injection): 2.28 ± 0.11 % ID/g
- intake of mouse organ: Kidney ([3]; 10 min after injection): 16.40 ± 0.10 % ID/g
- intake of mouse organ: Liver ([3]; 10 min after injection): 9.55 ± 2.22 % ID/g
- intake of mouse organ: Muscle ([3]; 10 min after injection): 1.49 ± 1.64 % ID/g
- intake of mouse organ: Tumor (PIP) ([3]; 10 min after injection): 2.18 ± 0.63 % ID/g
- intake of mouse organ: Bladder ([3]; 20 min after injection): 6.98 ± 2.51 % ID/g
- intake of mouse organ: Kidney ([3]; 20 min after injection): 19.80 ± 0.73 % ID/g
- intake of mouse organ: Liver ([3]; 20 min after injection): 7.26 ± 1.06 % ID/g
- intake of mouse organ: Muscle ([3]; 20 min after injection): 1.88 ± 2.00 % ID/g
- intake of mouse organ: Tumor (PIP) ([3]; 20 min after injection): 4.42 ± 1.50 % ID/g
- intake of mouse organ: Bladder ([3]; 30 min after injection): 13.51 ± 5.83 % ID/g
- intake of mouse organ: Kidney ([3]; 30 min after injection): 21.18 ± 2.17 % ID/g
- intake of mouse organ: Liver ([3]; 30 min after injection): 6.10 ± 0.50 % ID/g
- intake of mouse organ: Muscle ([3]; 30 min after injection): 1.69 ± 1.78 % ID/g
- intake of mouse organ: Tumor (PIP) ([3]; 30 min after injection): 5.43 ± 1.94 % ID/g
- intake of mouse organ: Bladder ([3]; 40 min after injection): 18.89 ± 8.84 % ID/g
- intake of mouse organ: Kidney ([3]; 40 min after injection): 22.74 ± 3.48 % ID/g
- intake of mouse organ: Liver ([3]; 40 min after injection): 5.38 ± 0.22 % ID/g
- intake of mouse organ: Muscle ([3]; 40 min after injection): 1.61 ± 1.69 % ID/g
- intake of mouse organ: Tumor (PIP) ([3]; 40 min after injection): 6.43 ± 2.32 % ID/g
- intake of mouse organ: Bladder ([3]; 50 min after injection): 22.76 ± 10.86 % ID/g
- intake of mouse organ: Kidney ([3]; 50 min after injection): 24.20 ± 4.60 % ID/g
- intake of mouse organ: Liver ([3]; 50 min after injection): 4.75 ± 0.07 % ID/g
- intake of mouse organ: Muscle ([3]; 50 min after injection): 1.54 ± 1.62 % ID/g
- intake of mouse organ: Tumor (PIP) ([3]; 50 min after injection): 7.33 ± 2.76 % ID/g
- intake of mouse organ: Bladder ([3]; 60 min after injection): 24.74 ± 11.23 % ID/g
- intake of mouse organ: Kidney ([3]; 60 min after injection): 25.78 ± 4.72 % ID/g
- intake of mouse organ: Liver ([3]; 60 min after injection): 4.41 ± 0.03 % ID/g
- intake of mouse organ: Muscle ([3]; 60 min after injection): 1.32 ± 1.33 % ID/g
- intake of mouse organ: Tumor (PIP) ([3]; 60 min after injection): 8.29 ± 2.99 % ID/g
- intake of mouse organ: Bladder ([3]; 150 min after injection): 42.3 ± 41.58 % ID/g
- intake of mouse organ: Kidney ([3]; 150 min after injection): 15.75 ± 11.53 % ID/g
- intake of mouse organ: Liver ([3]; 150 min after injection): 0.45 ± 0.11 % ID/g
- intake of mouse organ: Muscle ([3]; 150 min after injection): 0.21 ± 0.03 % ID/g
- intake of mouse organ: Tumor (PIP) ([3]; 150 min after injection): 11.4 ± 5.23 % ID/g
- intake of mouse organ: Bladder ([3]; 270 min after injection): 12.05 ± 2.76 % ID/g
- intake of mouse organ: Kidney ([3]; 270 min after injection): 12.45 ± 9.69 % ID/g
- intake of mouse organ: Liver ([3]; 270 min after injection): 0.22 ± 0.01 % ID/g
- intake of mouse organ: Muscle ([3]; 270 min after injection): 0.06 ± 0.02 % ID/g
- intake of mouse organ: Tumor (PIP) ([3]; 270 min after injection): 13.00±4.95 % ID/g
- tumor intake increase compared to [^68Ga]1e ([3]; 270 minutes): about 3 times
- excretion, in words ([3]; MicroPET/CT): rapidly excreted out of the body
- tumor intake over time, in words ([3]; MicroPET/CT): tumor intake was increased over time
- logP [4]: −2.42
SMILES: Cc1ccc(CCCC(=O)NCCCCC(NC(=O)CN2CCN3CCN4CCN(CC2)CC(=O)[O][68Ga]([O]C(=O)C3)[O]C(=O)C4)C(=O)NCCOCCOCC(=O)N(CCCCC(NC(=O)NC(CCC(=O)O)C(=O)O)C(=O)O)CC(=O)O)cc1 (stereo not shown) [[^68Ga]1g]
- residence time in the blood, in words ([3]; MicroPET/CT): residence time in the blood was increased
